The text below walks through data of ChEMBL document CHEMBL1949581, “Anion inhibition studies of an α-carbonic anhydrase from the living fossil Astrosclera willeyana” (Bioorg Med Chem Lett, 2012).

This assay deals with T1, Astrosclerin-3 (Astrosclera willeyana, UniProt A6YCJ1).
T1 sequence (A6YCJ1 whole entry): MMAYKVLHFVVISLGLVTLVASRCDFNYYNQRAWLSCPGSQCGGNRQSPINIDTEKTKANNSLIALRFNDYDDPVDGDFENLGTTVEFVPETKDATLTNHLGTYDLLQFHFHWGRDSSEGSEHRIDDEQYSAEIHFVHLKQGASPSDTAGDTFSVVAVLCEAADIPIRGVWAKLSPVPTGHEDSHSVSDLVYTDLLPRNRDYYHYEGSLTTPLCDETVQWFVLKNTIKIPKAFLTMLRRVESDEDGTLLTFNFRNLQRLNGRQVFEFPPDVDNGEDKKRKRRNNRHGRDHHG
Nature of the assay: biochemical. In kind it is cell-based.

SMILES strings stand for the structures. Bounds are passed on as bounds.

Description: Inhibition of Astrosclera willeyana recombinant GST-tagged astrosclerin 3 expressed in Escherichia coli BL21-DE3-RIPL cells preincubated for 15 mins measured for 10 to 100 secs by stopped flow CO2 hydration assay

By Ki is commonly meant a dissociation constant, usually derived from enzyme kinetics or from competition with a known ligand. As for `CCN(CC)C(=S)S` [DITIOCARB SODIUM], the affinity, expressed as Ki, was 450 µM. With `OB(O)c1ccccc1` [PHENYLBORONIC ACID] the figure was 9.6 µM; with `[N-]=[N+]=[N-]` [SODIUM AZIDE], 27800 µM. Take `O=C([O-])O.[Na+]` [SODIUM BICARBONATE]: the affinity, expressed as Ki, was 22800 µM. As for `O=S([O-])O.[Na+]` [SODIUM BISULFITE], the figure is 320 µM; as for `[Br-].[Na+]` [SODIUM BROMIDE], 30600 µM; as for `O=C([O-])[O-].[Na+].[Na+]` [SODIUM CARBONATE], 13500 µM. Turning to `S=C(S)S` [SODIUM CARBONOTRITHIOATE], the affinity, expressed as Ki, was 710 µM.

Regarding `[Cl-].[Na+]` [SODIUM CHLORIDE], the Ki came to 460 µM. In turn, `N#CO` [SODIUM CYANATE] showed an inhibition constant Ki of 230 µM. `[F-].[Na+]` [SODIUM FLUORIDE] gave an inhibition constant Ki of 940 µM. With `S` [SODIUM HYDROSULFIDE] the figure was 490 µM. As for `O=S(=O)(O)NS(=O)(=O)O` [SODIUM IMINODISULFONATE], the figure is 660 µM; as for `[I-].[Na+]` [SODIUM IODIDE], 10400 µM.

As to `O=[N+]([O-])[O-].[Na+]` [SODIUM NITRATE], the inhibition constant Ki turned out to be 76400 µM.

The compound `O=NO` [SODIUM NITRITE] yielded an inhibition constant Ki of 63800 µM. The Ki values of the last two compounds are within 1.5-fold of each other.

With `[O-][Cl+3]([O-])([O-])O` [SODIUM PERCHLORATE], the affinity corresponds to a Ki of 5110 µM. Against the preceding compound, the Ki is about 12-fold lower. With `O=S(=O)(O)OOS(=O)(=O)O` [SODIUM PERSULFATE], the inhibition constant (Ki) worked out at 70600 µM.

As to `O=P(O)(O)OP(=O)(O)O` [SODIUM PYROPHOSPHATE], the Ki was 57700 µM. As for `O=S(=O)(O)OS(=O)(=O)O` [SODIUM PYROSULFATE], the figure is 88100 µM; as for `O=[Se](=O)(O)O` [SODIUM SELENATE], 880 µM. As to `N#C[SeH]` [SODIUM SELENOCYANATE], affinity was put at a Ki of 770 µM.

`NS(=O)(=O)O` [SODIUM SULFAMATE] had an inhibition constant Ki of 13 µM. `O=S(=O)([O-])[O-].[Na+].[Na+]` [SODIUM SULFATE ANHYDROUS] came in with a Ki of 76300 µM.

`O=[Te](=O)(O)O` [SODIUM TELLURATE] gave a Ki of 750 µM.

The compound `O=BOB(O)OB(O)OB=O` [SODIUM TETRABORATE] had an inhibition constant (Ki) of 21900 µM. With `F[B-](F)(F)F.[Na+]` [SODIUM TETRAFLUOROBORATE] the figure was over 200000 µM; with `NS(N)(=O)=O` [SULFAMIDE], 8.9 µM.
